From ChEMBL document CHEMBL4808216, “Gut-Restricted Selective Cyclooxygenase-2 (COX-2) Inhibitors for Chemoprevention of Colorectal Cancer” (J Med Chem, 2021)
In brackets after ≈: the same amount, converted by molar mass.

Assays:
[1] = biological target: T1, Prostaglandin G/H synthase 1 (Homo sapiens, UniProt P23219); assay: Inhibition of human recombinant COX-1 assessed as reduction in peroxidase activity using arachidonic acid as substrate preincubated for 60 mins followed by substrate addition for 2 secs by ADPH based fluorometric analysis; assay type: ADME
T1 sequence (P23219 whole entry): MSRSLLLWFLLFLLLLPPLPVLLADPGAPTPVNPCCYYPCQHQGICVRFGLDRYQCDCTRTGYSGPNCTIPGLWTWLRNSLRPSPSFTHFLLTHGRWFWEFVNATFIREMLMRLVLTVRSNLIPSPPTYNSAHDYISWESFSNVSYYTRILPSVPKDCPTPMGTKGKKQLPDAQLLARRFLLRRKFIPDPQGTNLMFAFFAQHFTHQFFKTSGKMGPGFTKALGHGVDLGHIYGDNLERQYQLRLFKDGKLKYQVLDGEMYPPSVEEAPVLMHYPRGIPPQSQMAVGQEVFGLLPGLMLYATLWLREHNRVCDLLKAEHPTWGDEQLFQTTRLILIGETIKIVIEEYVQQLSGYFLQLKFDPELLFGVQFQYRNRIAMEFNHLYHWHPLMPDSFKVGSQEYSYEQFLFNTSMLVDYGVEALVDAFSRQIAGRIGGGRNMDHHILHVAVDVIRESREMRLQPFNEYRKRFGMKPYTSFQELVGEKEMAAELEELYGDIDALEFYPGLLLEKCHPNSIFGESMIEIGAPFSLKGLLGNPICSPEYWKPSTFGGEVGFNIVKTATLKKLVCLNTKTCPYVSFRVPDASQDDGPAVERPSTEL

[2] = biological target: T1, Prostaglandin G/H synthase 1; assay: Inhibition of COX1 (unknown origin) expressed in HEK293 TRex cells assessed as reduction in PGE2 production using arachidonic acid as substrate preincubated for 60 mins followed by substrate addition for 1 hr in presence of 10% FBS by RapidFire High-Throughput Mass Spectrometry; assay type: ADME, cell-based, HEK293-T-REx
[3] = biological target: T2, Prostaglandin G/H synthase 2 (Homo sapiens, UniProt P35354); assay: Inhibition of COX2 (unknown origin) expressed in HEK293 TRex cells assessed as reduction in PGE2 production using arachidonic acid as substrate preincubated for 60 mins followed by substrate addition for 1 hr in presence of 10% FBS by RapidFire High-Throughput Mass Spectrometry; assay type: cell-based, HEK293-T-REx
T2 sequence (P35354 whole entry): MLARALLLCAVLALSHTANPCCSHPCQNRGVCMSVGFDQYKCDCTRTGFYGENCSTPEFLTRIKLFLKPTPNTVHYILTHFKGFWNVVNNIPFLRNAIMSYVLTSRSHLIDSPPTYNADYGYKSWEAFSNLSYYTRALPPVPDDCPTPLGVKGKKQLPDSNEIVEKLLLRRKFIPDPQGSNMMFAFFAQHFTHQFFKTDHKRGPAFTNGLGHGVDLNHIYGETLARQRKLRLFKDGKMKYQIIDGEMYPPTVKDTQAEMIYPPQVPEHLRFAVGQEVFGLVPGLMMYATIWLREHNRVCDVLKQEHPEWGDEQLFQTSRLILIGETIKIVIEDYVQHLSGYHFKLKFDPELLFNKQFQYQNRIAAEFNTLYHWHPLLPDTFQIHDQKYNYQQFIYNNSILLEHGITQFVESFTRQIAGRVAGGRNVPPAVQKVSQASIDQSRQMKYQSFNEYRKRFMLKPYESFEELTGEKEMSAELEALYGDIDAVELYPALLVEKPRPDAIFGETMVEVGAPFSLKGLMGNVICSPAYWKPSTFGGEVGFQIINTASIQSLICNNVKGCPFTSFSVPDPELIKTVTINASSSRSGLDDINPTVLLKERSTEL

[4] = biological target: T2, Prostaglandin G/H synthase 2; assay: Inhibition of human recombinant COX-2 assessed as reduction in peroxidase activity using arachidonic acid as substrate preincubated for 60 mins followed by substrate addition for 2 secs by ADPH based fluorometric analysis
[5] = Drug concentration in C57BL/6J mouse plasma at 10 mg/kg, po administered as cassette dose measured at 4 hrs by LC/MS/MS analysis; assay type: ADME, organism-based
[6] = Ratio of drug concentration in C57BL/6J mouse colon to plasma at 10 mg/kg, po measured after 4 hr by liquid chromatographic triple-quadrupole mass spectrometric method; assay type: ADME, organism-based; settings: for Ratio: other tissue, 10 mg/kg, 4 h; for Kp at 4 h: C57BL/6J, colon / plasma
[7] = Clearance in C57BL/6J mouse at 2 mg/kg, iv measured after 0.08 to 24 hrs; assay type: ADME, organism-based; settings: in vivo, time 0.08-24 hrs
[8] = Drug concentration in C57BL/6J mouse colon at 10 mg/kg, po administered as cassette dose measured at 4 hrs by LC/MS/MS analysis; assay type: ADME, organism-based; settings: read-out: Ct
[9] = Half life in C57BL/6J mouse at 2 mg/kg, iv measured after 0.08 to 24 hrs; assay type: ADME, organism-based; settings: C57BL/6J, in vivo, time 0.08-24 hrs
[10] = Half life in mouse hepatocytes; assay type: ADME, cell-based, Hepatocyte
[11] = Half life in human liver microsomes; assay type: ADME, Microsome
[12] = Half life in mouse liver microsomes; assay type: ADME, Microsome
[13] = Half life in human hepatocytes; assay type: ADME, cell-based, Hepatocyte
[14] = Tmax in C57BL/6J mouse at 10 mg/kg, po administered as cassette dose measured at 4 hrs by liquid chromatographic triple-quadrupole mass spectrometric method; assay type: ADME, organism-based; settings: in vivo
[15] = Volume of distribution at steady state in C57BL/6J mouse at 2 mg/kg, iv measured after 0.08 to 24 hrs; assay type: ADME, organism-based; settings: C57BL/6J, in vivo, time 0.08-24 hrs, read-out: Vdss
[16] = biological target: T2, Prostaglandin G/H synthase 2; assay: Inhibition of human recombinant COX-2 using arachidonic acid as substrate preincubated for 60 mins followed by substrate addition for 2 secs by ADPH based fluorometric analysis
[17] = Drug concentration in C57BL/6J mouse portal vein plasma at 10 mg/kg, po administered as cassette dose measured at 4 hrs by LC/MS/MS analysis; assay type: ADME, organism-based
[18] = biological target: T1, Prostaglandin G/H synthase 1; assay: Inhibition of COX1 in human whole blood assessed as reduction in calcium ionophore-stimulated TXB2 production incubated for 1 hr by ELISA; assay type: tissue-based
[19] = biological target: T3, Prostaglandin G/H synthase 2 (Homo sapiens) (UniProt P35354)
T3 sequence (whole entry): T2 sequence (P35354 whole entry)
Description: Protein occupancy at human recombinant COX-2 assessed as dissociation half life

[20] = biological target: T2, Prostaglandin G/H synthase 2; assay: Inhibition of COX2 in human whole blood assessed as reduction in LPS stimulated PGE2 production incubated for 1 hr by ELISA; assay type: tissue-based
[21] = Protein binding in human colon assessed as unbound fraction; assay type: ADME, tissue-based
Mus musculus [22] = assay: Antitumor activity in C57BL/6J mouse model of spontaneous GI-tract tumor Apc-min assessed as reduction in total ileum polyp area at 300 mg/kg, po administered as suspension for 10 to 12 weeks; assay type: functional; settings: time 10-12 weeks, read-out: TGI
Mus musculus [23] = assay: Chemo-protective activity in C57BL/6J mouse model of spontaneous GI-tract tumor Apc-min assessed as 18F-FDG uptake in ileum at 300 mg/kg, po incorporated into chow diet administered daily for 2 weeks and measured after 14 days by ex vivo PET imaging analysis relative to control; assay type: functional
[24] = Protein binding in human plasma assessed as unbound fraction; assay type: ADME, cell-free
[25] = Equilibrium solubility of compound in FASSIF at pH 6.5; assay type: physicochemical
in vivo = settings: C57BL/6J, mouse, colon / portal vein plasma, po, 10 mg/kg
Description: Ratio of drug concentration in C57BL/6J mouse colon to portal vein plasma at 10 mg/kg, po measured after 4 hr by liquid chromatographic triple-quadrupole mass spectrometric method

Homo sapiens = species: Homo sapiens; assay: Selectivity ratio of IC50 for COX1 in human whole blood assessed as reduction in calcium ionophore-stimulated TXB2 production to IC50 for COX2 in human whole blood assessed as reduction in LPS stimulated PGE2 production; assay type: tissue-based

| SMILES | IC50 [1] | IC50 [2] | IC50 [3] | IC50 [4] | concentration at 4 h [5] | clearance [7] | concentration at 4 h [8] | Kp at 4 h [6] | also measured |
| --- | --- | --- | --- | --- | --- | --- | --- | --- | --- |
| CC(C)Oc1nc(OCC(C)(C)O)c(-c2ccc(S(C)(=O)=O)cc2)cc1CO | > 50 µM | > 50 µM | > 50 µM | 4.1 µM |  |  |  |  |  |
| Cc1cnc(OCC(C)(C)O)c(-c2ccc(S(C)(=O)=O)cc2)c1 | > 50 µM | > 50 µM | 1.89 µM | 6.36 µM |  |  |  |  |  |
| CCCCOc1nc(OCC2(O)COC2)c(-c2ccc(S(C)(=O)=O)cc2)cc1CO |  | > 50 µM | 1.32 µM |  | 7.7 ng/mL | 68.6 mL/min/kg | 11900 ng/g |  | Ratio [6]: 1596 |
| CCc1cnc(OCC(C)(C)O)c(-c2ccc(S(C)(=O)=O)cc2)c1 | > 50 µM | > 50 µM | 0.95 µM | 3.24 µM | 21.8 ng/mL | 65.6 mL/min/kg | 51.6 ng/g | 2.5 | half-life [9]: 0.32 h; half-life [10]: 0.0533 h; half-life [11]: 1.15 h; half-life [12]: 0.22 h; half-life [13]: 1.4 h; Tmax [14]: 0.25 h; Vd [15]: 1.35 L/kg |
| CC(C)(O)COc1ncc(CO)cc1-c1ccc(S(C)(=O)=O)cc1 | > 50 µM | > 50 µM | > 50 µM | > 50 µM |  |  |  |  |  |
| CCCCOc1nc(OCC(C)(C)O)c(-c2ccc(S(N)(=O)=O)cn2)cc1CO | > 50 µM | > 50 µM | 0.23 µM | 0.45 µM | 5.5 ng/mL |  | 12000 ng/g |  | Ki [16]: 0.019 µM; concentration at 4 h [17]: 7.1 ng/mL; IC50 [18]: > 60 µM; T1/2 [19]: 23 h; IC50 [20]: 7.23 µM; Ratio [6]: 2179; fraction unbound [21]: 0.075; inhibition in vivo at 300 mg/kg (Mus musculus [22]): 25%; Activity (Mus musculus [23]): 54.8%; fraction unbound [24]: 0.002; solubility thermodynamic [25]: 63.1 µM (≈ 26.8 µg/mL) |
| COc1nc(OCC(C)(C)O)c(-c2ccc(S(C)(=O)=O)cc2)cc1CO | > 50 µM | > 50 µM | > 50 µM | 17.1 µM |  |  |  |  |  |
| COCCOc1nc(OCC(C)(C)O)c(-c2ccc(S(C)(=O)=O)cc2)cc1CO | > 50 µM | > 50 µM | 2.95 µM | 18.2 µM |  |  |  |  |  |
| CCCCOc1nc(OCC(C)(C)O)c(-c2ccc(S(C)(=O)=O)cc2)cc1C(=O)O |  |  |  | > 50 µM |  |  |  |  |  |
| CCCCOc1nc(OCC(C)(C)O)c(-c2ccc(S(C)(=O)=O)cc2)cc1COCCO |  | > 50 µM | 0.54 µM |  | 28.7 ng/mL | 55.4 mL/min/kg | 478 ng/g | 16.5 |  |
| CCCCOc1nc(OCC(C)(C)O)c(-c2ccc(S(C)(=O)=O)cc2)cc1C(C)(C)O |  | > 50 µM | 1.21 µM |  | 35.8 ng/mL | 58.8 mL/min/kg | 85.8 ng/g | 2.5 |  |
| CCCCOc1nc(OCC2(O)CCC2)c(-c2ccc(S(C)(=O)=O)cc2)cc1CO | > 50 µM | 7.23 µM | 0.037 µM | 0.12 µM | 9.9 ng/mL | 100 mL/min/kg | 5390 ng/g | 545 | Ki [16]: 0.003 µM; concentration at 4 h [17]: 82.4 ng/mL; Kp at 4 h (in vivo): 69.9; Ratio IC50 (Homo sapiens): > 200; IC50 [18]: > 60 µM; T1/2 [19]: 39 h; IC50 [20]: 0.146 µM; fraction unbound [21]: 0.055; Activity (Mus musculus [23]): 61.2%; fraction unbound [24]: 0.005; solubility thermodynamic [25]: 56.1 µM (≈ 24.4 µg/mL) |
| CCCCOc1nc(OCC(C)(C)O)c(-c2ccc(S(C)(=O)=O)cc2)cc1C(C)O (configuration not stated) |  | 7.69 µM | 2.34 µM |  | 22.8 ng/mL | 48.2 mL/min/kg | 2810 ng/g | 134 |  |
| CCCCOc1nc(OCC2(C)COC2)c(-c2ccc(S(C)(=O)=O)cc2)cc1CO |  | > 50 µM | 0.21 µM |  | 2 ng/mL | 89.3 mL/min/kg | 1850 ng/g |  | Ratio [6]: 1040 |
| CC(C)(O)COc1ncc(C(F)(F)F)cc1-c1ccc(S(C)(=O)=O)cc1 | > 50 µM | > 50 µM | 1.5 µM | 0.39 µM | 9800 ng/mL | 0.54 mL/min/kg | 8400 ng/g | 0.9 | half-life [9]: 38.5 h; half-life [10]: > 6.18 h; half-life [11]: > 3.07 h; half-life [12]: > 3.07 h; half-life [13]: > 6.18 h; Tmax [14]: 3 h; Vd [15]: 1.55 L/kg |
